Source: PubChem BioAssay (NCI)
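How tested: cells in 96-well plates exposed to compound for 48 hours at five concentrations. TGI denotes the concentration required for complete inhibition of growth.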

Columns and labels:
Test in all cases: NCI anticancer screen, dose series, 48 h
[1] = tested on: SF-295 CNS
[2] = tested on: RXF 393 renal
[3] = tested on: UACC-257 melanoma
[4] = tested on: NCI-H226 lung
[5] = tested on: SR leukemia
[6] = tested on: OVCAR-3 ovarian
[7] = tested on: A549 NSCLC
[8] = tested on: CAKI-1 renal
[9] = tested on: SK-OV-3 ovarian
[10] = tested on: SW-620 colon
[11] = tested on: EKVX NSCLC
[12] = tested on: SNB-19 CNS
[13] = tested on: NCI-H522 lung
[14] = tested on: MDA-MB-231 breast
[15] = tested on: SK-MEL-28 melanoma
[16] = tested on: OVCAR-4 ovarian
[17] = tested on: ACHN renal
[18] = tested on: A498 renal
[19] = tested on: MCF7 breast
[20] = tested on: CCRF-CEM leukemia
[21] = tested on: HOP-92 NSCLC
[22] = tested on: K-562 leukemia
[23] = tested on: LOX IMVI melanoma
[24] = tested on: RPMI-8226 leukemia
[25] = tested on: SF-268 CNS
[26] = tested on: OVCAR-8 ovarian
[27] = tested on: KM12 colon
[28] = tested on: HCT-116 colon
[29] = tested on: HT29 colon
[30] = tested on: HS 578T breast
[31] = tested on: HL-60(TB) leukemia
[32] = tested on: SK-MEL-2 melanoma
[33] = tested on: SN12C renal
[34] = tested on: MALME-3M melanoma
[35] = tested on: T-47D breast
[36] = tested on: BT-549 breast
[37] = tested on: UACC-62 melanoma
[38] = tested on: HCT-15 colon
[39] = tested on: TK-10 renal
[40] = tested on: SF-539 CNS
[41] = tested on: SK-MEL-5 melanoma
[42] = tested on: OVCAR-5 ovarian
[43] = tested on: U251 CNS
[44] = tested on: 786-0 renal
[45] = tested on: COLO 205 colon
[46] = tested on: NCI-H460 lung
[47] = tested on: HOP-62 NSCLC
[48] = tested on: NCI-H23 lung
[49] = tested on: M14 melanoma
[50] = tested on: MDA-MB-435
[51] = tested on: MDA-N
[52] = tested on: DU-145 prostate
[53] = tested on: NCI/ADR-RES ovarian
[54] = tested on: UO-31 renal
[55] = tested on: HCC-2998 colon
[56] = tested on: MOLT-4 leukemia
[57] = tested on: IGROV1 ovarian
[58] = tested on: SNB-75 CNS
[59] = tested on: PC-3 prostate

O=C1/C(=C\c2cccc(Oc3ccccc3)c2)SC(c2ccccc2)N1c1ccccc1Cl (configuration not stated)
TGI [1]: > 100 µM | TGI [2]: 78.5 µM | TGI [3]: 85.8 µM | TGI [4]: > 100 µM | TGI [5]: > 100 µM | TGI [6]: > 100 µM | TGI [7]: > 100 µM | TGI [8]: > 100 µM | TGI [9]: > 100 µM | TGI [10]: > 100 µM | TGI [11]: > 100 µM | TGI [12]: 76.4 µM | TGI [13]: 48.5 µM | TGI [14]: > 100 µM | TGI [15]: > 100 µM | TGI [16]: > 100 µM | TGI [17]: > 100 µM | TGI [18]: > 100 µM | TGI [19]: > 100 µM | TGI [20]: 38.4 µM | TGI [21]: 57.5 µM | TGI [22]: > 100 µM | TGI [23]: 75.8 µM | TGI [24]: 55.3 µM | TGI [25]: > 100 µM | TGI [26]: 79.9 µM | TGI [27]: 98.8 µM | TGI [28]: 50.7 µM | TGI [29]: 49.9 µM | TGI [30]: 60.2 µM | TGI [31]: > 100 µM | TGI [32]: 92.4 µM | TGI [33]: 96.9 µM | TGI [34]: > 100 µM | TGI [35]: > 100 µM | TGI [36]: 96.6 µM | TGI [37]: > 100 µM | TGI [38]: > 100 µM | TGI [39]: > 100 µM | TGI [40]: 39 µM | TGI [41]: 29.8 µM | TGI [42]: > 100 µM | TGI [43]: 78.5 µM | TGI [44]: > 100 µM | TGI [45]: 49 µM | TGI [46]: > 100 µM | TGI [47]: > 100 µM | TGI [48]: 69.7 µM | TGI [49]: > 100 µM | TGI [50]: 68 µM | TGI [51]: 54.2 µM | TGI [52]: > 100 µM | TGI [53]: > 100 µM | TGI [54]: > 100 µM | TGI [55]: 78.9 µM | TGI [56]: > 100 µM

CC(=O)NNc1nc(C)c(C(=O)/C=C/C=C/c2ccccc2)s1
TGI [1]: > 100 µM | TGI [3]: > 100 µM | TGI [4]: > 100 µM | TGI [5]: > 100 µM | TGI [6]: > 100 µM | TGI [8]: > 100 µM | TGI [9]: > 100 µM | TGI [10]: > 100 µM | TGI [11]: > 100 µM | TGI [12]: > 100 µM | TGI [13]: > 100 µM | TGI [14]: > 100 µM | TGI [57]: > 100 µM | TGI [15]: > 100 µM | TGI [16]: > 100 µM | TGI [17]: > 100 µM | TGI [18]: > 100 µM | TGI [19]: > 100 µM | TGI [20]: > 100 µM | TGI [58]: > 100 µM | TGI [21]: > 100 µM | TGI [23]: > 100 µM | TGI [24]: > 100 µM | TGI [25]: > 100 µM | TGI [26]: > 100 µM | TGI [27]: > 100 µM | TGI [28]: > 100 µM | TGI [29]: > 100 µM | TGI [30]: > 100 µM | TGI [31]: > 100 µM | TGI [33]: > 100 µM | TGI [34]: > 100 µM | TGI [35]: > 100 µM | TGI [36]: > 100 µM | TGI [37]: > 100 µM | TGI [38]: > 100 µM | TGI [39]: > 100 µM | TGI [40]: > 100 µM | TGI [41]: > 100 µM | TGI [42]: > 100 µM | TGI [43]: > 100 µM | TGI [44]: > 100 µM | TGI [45]: > 100 µM | TGI [46]: > 100 µM | TGI [47]: > 100 µM | TGI [48]: > 100 µM | TGI [49]: > 100 µM | TGI [50]: > 100 µM | TGI [51]: > 100 µM | TGI [52]: > 100 µM | TGI [53]: > 100 µM | TGI [54]: > 100 µM | TGI [55]: > 100 µM | TGI [56]: > 100 µM

CCC(=O)Nc1ccc(NCC(=O)Nc2ccc(Cl)cc2)cc1
TGI [1]: > 100 µM | TGI [2]: 35.6 µM | TGI [3]: 36.8 µM | TGI [4]: 53.5 µM | TGI [5]: 94.1 µM | TGI [6]: 33.6 µM | TGI [7]: 56.5 µM | TGI [59]: 31.8 µM | TGI [8]: 53.7 µM | TGI [9]: 64.1 µM | TGI [10]: 74.9 µM | TGI [11]: 28.2 µM | TGI [12]: 42 µM | TGI [13]: 30.2 µM | TGI [57]: 64.4 µM | TGI [15]: 42.6 µM | TGI [16]: 33.3 µM | TGI [17]: 27.9 µM | TGI [18]: 46 µM | TGI [19]: 29.8 µM | TGI [20]: 60.3 µM | TGI [58]: 64.6 µM | TGI [21]: 33.4 µM | TGI [22]: > 100 µM | TGI [23]: 27.4 µM | TGI [24]: 70.3 µM | TGI [25]: 55.4 µM | TGI [26]: 94.4 µM | TGI [27]: 33 µM | TGI [28]: 30.4 µM | TGI [29]: 28 µM | TGI [30]: > 100 µM | TGI [31]: 42.7 µM | TGI [32]: 30.8 µM | TGI [33]: 35.3 µM | TGI [34]: 34.8 µM | TGI [35]: 29.8 µM | TGI [36]: 48.6 µM | TGI [37]: 26.6 µM | TGI [38]: 36.4 µM | TGI [40]: 36.8 µM | TGI [41]: 30.7 µM | TGI [42]: 32.1 µM | TGI [44]: 35.7 µM | TGI [45]: 35.5 µM | TGI [47]: 30.7 µM | TGI [48]: 38.9 µM | TGI [49]: 29.3 µM | TGI [50]: 33.2 µM | TGI [51]: 35.3 µM | TGI [52]: 35.6 µM | TGI [53]: 93.6 µM | TGI [54]: 78.9 µM | TGI [55]: 26.7 µM | TGI [56]: 98.2 µM

c1ccc2c(c1)nnn2CN1CCOCC1
TGI [1]: > 100 µM | TGI [2]: > 100 µM | TGI [3]: > 100 µM | TGI [4]: > 100 µM | TGI [5]: 54.8 µM | TGI [6]: 93.1 µM | TGI [7]: > 100 µM | TGI [59]: > 100 µM | TGI [8]: > 100 µM | TGI [10]: > 100 µM | TGI [11]: > 100 µM | TGI [12]: > 100 µM | TGI [13]: > 100 µM | TGI [14]: > 100 µM | TGI [57]: > 100 µM | TGI [15]: > 100 µM | TGI [16]: > 100 µM | TGI [17]: > 100 µM | TGI [18]: > 100 µM | TGI [21]: > 100 µM | TGI [22]: > 100 µM | TGI [23]: > 100 µM | TGI [25]: > 100 µM | TGI [26]: > 100 µM | TGI [27]: > 100 µM | TGI [28]: > 100 µM | TGI [29]: > 100 µM | TGI [30]: > 100 µM | TGI [31]: 63.6 µM | TGI [32]: > 100 µM | TGI [33]: > 100 µM | TGI [34]: > 100 µM | TGI [35]: > 100 µM | TGI [36]: > 100 µM | TGI [37]: > 100 µM | TGI [38]: > 100 µM | TGI [39]: > 100 µM | TGI [41]: > 100 µM | TGI [42]: > 100 µM | TGI [43]: > 100 µM | TGI [44]: > 100 µM | TGI [46]: > 100 µM | TGI [47]: > 100 µM | TGI [48]: > 100 µM | TGI [49]: > 100 µM | TGI [50]: > 100 µM | TGI [51]: > 100 µM | TGI [53]: > 100 µM | TGI [54]: > 100 µM | TGI [56]: > 100 µM

Cc1ccc(N=C2SC(=S)N(CCC[N+](C)(C)C)C2=Nc2ccc(C)cc2)cc1
TGI [2]: 18 µM | TGI [3]: 32 µM | TGI [4]: 47 µM | TGI [5]: 27 µM | TGI [7]: 33.8 µM | TGI [59]: 28.3 µM | TGI [10]: 41.4 µM | TGI [11]: 38.5 µM | TGI [12]: 27.7 µM | TGI [14]: 32.3 µM | TGI [57]: 26.6 µM | TGI [15]: 23.7 µM | TGI [17]: 30.1 µM | TGI [18]: 40.7 µM | TGI [19]: 48.3 µM | TGI [20]: 58 µM | TGI [58]: 22.6 µM | TGI [21]: 31.6 µM | TGI [22]: 32.9 µM | TGI [24]: 32 µM | TGI [26]: 38.8 µM | TGI [27]: 50.1 µM | TGI [28]: 25.4 µM | TGI [29]: 32.9 µM | TGI [30]: 24.6 µM | TGI [31]: 5.86 µM | TGI [32]: 35.9 µM | TGI [33]: 29.5 µM | TGI [34]: 41.9 µM | TGI [35]: 18.7 µM | TGI [36]: 15.4 µM | TGI [37]: 22.3 µM | TGI [38]: 31.4 µM | TGI [39]: 36.8 µM | TGI [41]: 27.5 µM | TGI [42]: 29.7 µM | TGI [43]: 26.6 µM | TGI [44]: 30.3 µM | TGI [45]: 87.6 µM | TGI [46]: 36.3 µM | TGI [47]: 52.7 µM | TGI [48]: 32.7 µM | TGI [49]: 46.1 µM | TGI [51]: 28.5 µM | TGI [54]: 37.8 µM | TGI [55]: 39.6 µM | TGI [56]: 37.8 µM
